Source: US20120020876A1, “HEDGEHOG PATHWAY INHIBITORS” (priority 2009, published 2012)
“Also recorded” adds a separate entry of the source.

Legend:
KPC tumor vasculature = test: Mean vascular density and vascular-tumor distance (CD31 immunohistochemistry) in KPC tumors; assay type: in vivo, mouse
Procedure: Tissues were fixed in 10% formalin solution for 24 hours and transferred to 70% ethanol. Tissues were paraffin embedded, sectioned and rehydrated. For CD31 IHC, sections were unmasked in 10 mM EDTA, pH 8.0 in a pressure cooker. For all other antibodies, sections were unmasked in 10 mM citric acid in a pressure cooker. Endogenous peroxidases were quenched in 3% H2O2/PBS for 20 minutes. Remaining steps were carried out with Vectastain ABC kits appropriate to the species of primary antibody (Vector Labs, Burlingame, Calif.) with the following modification: blocking serum was supplemented with Protein Blocking Agent (Immunotech/BeckmanCoulter, Fullerton, Calif.) diluted 1:50. Antigens were developed with DAB Peroxidase Substrate (Vector Labs). […]
Tissue sections were probed with anti-CD31 antibodies and counterstained with hematoxylin. Mean vascular density (MVD) was determined as the number of CD31 positive blood vessels per 40× field, over three random fields per tumor. The distance separating intratumoral blood vessels and neoplastic cells was determined for twenty randomly chosen blood vessels per tumor. Each intratumoral blood vessels was photographed at 1000× magnification, and the distance to the four nearest tumor cells was measured and the results averaged.

KPC tumors = test: Proliferation of KPC tumors (phospho-histone H3 immunohistochemistry); assay type: in vivo, mouse; conditions: 4 days or 8-12 days of treatment
Procedure: Tissues were fixed in 10% formalin solution for 24 hours and transferred to 70% ethanol. Tissues were paraffin embedded, sectioned and rehydrated. For CD31 IHC, sections were unmasked in 10 mM EDTA, pH 8.0 in a pressure cooker. For all other antibodies, sections were unmasked in 10 mM citric acid in a pressure cooker. Endogenous peroxidases were quenched in 3% H2O2/PBS for 20 minutes. Remaining steps were carried out with Vectastain ABC kits appropriate to the species of primary antibody (Vector Labs, Burlingame, Calif.) with the following modification: blocking serum was supplemented with Protein Blocking Agent (Immunotech/BeckmanCoulter, Fullerton, Calif.) diluted 1:50. Antigens were developed with DAB Peroxidase Substrate (Vector Labs). The following antibody dilutions were used: Phospho-Histone H3, 1:100 (#9701, Cell Signaling Technology); Cleaved Caspase 3, 1:100 (#9661, Cell Signaling Technology); CD31, 1:75 (SC-1506). Slides were counterstained with hematoxylin.

For `CC1=C2C[C@H]3[C@@H](CC[C@@H]4C[C@H](NS(C)(=O)=O)CC[C@@]43C)[C@@H]2CC[C@@]2(C1)O[C@@H]1C[C@H](C)CN[C@H]1[C@H]2C.Cl` [Compound A], the “mean vascular density (MVD)” value (KPC tumor vasculature; KPC tumors after 8-12 days of treatment) was “higher MVD; also recorded: significantly elevated; also recorded: increased MVD”, the “position of intratumoral blood vessels relative to tumor cells” value (KPC tumor vasculature; KPC tumors, vs control and gemcitabine-treated specimens) was “positioned in close proximity to tumor cells” and the “proliferation of KPC tumors” value (KPC tumors) was “little appreciable effect; also recorded: unchanged”.
